{"source": "ChEMBL document CHEMBL5500352", "about": "“ML162 derivatives incorporating a naphthoquinone unit as ferroptosis/apoptosis inducers: Design, synthesis, anti-cancer activity, and drug-resistance reversal evaluation” (Eur J Med Chem, 2024)", "key": {"HT-1080 [1]": {"tested_on": "HT-1080", "experiment": "Antitumor activity against human HT-1080 cells xenografted in BALB/c nude mouse assessed as tumor growth inhibition at 20 mg/kg, ip administered once daily for 19 days and measured every 2 days", "assay_type": "functional, organism-based", "conditions": "time 19.0 day"}, "HT-1080 [2]": {"tested_on": "HT-1080", "experiment": "Induction of apoptosis in human HT-1080 cells assessed as necrotic cells at 4 uM incubated for 24 hrs by Annexin-V FITC/PI staining based flow cytometry analysis (reference value: 3.98%)", "assay_type": "functional"}, "HT-1080 [3]": {"tested_on": "HT-1080", "experiment": "Induction of apoptosis in human HT-1080 cells assessed as early apoptotic cells at 1 uM incubated for 24 hrs by Annexin-V FITC/PI staining based flow cytometry analysis (reference value: 1.85%)", "assay_type": "functional"}, "HT-1080 [4]": {"tested_on": "HT-1080", "experiment": "Induction of apoptosis in human HT-1080 cells assessed as late apoptotic cells at 4 uM incubated for 24 hrs by Annexin-V FITC/PI staining based flow cytometry analysis (reference value: 1.66%)", "assay_type": "functional"}, "HT-1080 [5]": {"tested_on": "HT-1080", "experiment": "Antitumor activity against human HT-1080 cells xenografted in ip dosed BALB/c nude mouse assessed as tumor growth inhibition administered once daily for 19 days and measured every 2 days", "assay_type": "functional, organism-based", "conditions": "dose 20-40 mg/kg, time 19.0 day"}, "[6]": {"experiment": "Potentiation of AMG510 induced cytotoxicity in human AMG 510-resistant MIA PaCa-2 cells assessed as reduction in cell survival rate at 1 uM in presence of 10 nM AMG510 (reference value: 90%)", "assay_type": "functional"}, "HT-1080 [7]": {"tested_on": "HT-1080", "experiment": "Antitumor activity against human HT-1080 cells xenografted in ip dosed BALB/c nude mouse assessed as reduction in GPX4 level administered once daily for 19 days and measured every 2 days by immunohistochemistry assay", "assay_type": "functional, organism-based", "conditions": "dose 20-40 mg/kg, time 19.0 day"}, "HT-1080 [8]": {"tested_on": "HT-1080", "experiment": "Antitumor activity against human HT-1080 cells xenografted in ip dosed BALB/c nude mouse assessed as reduction in Bcl-2 level administered once daily for 19 days and measured every 2 days by immunohistochemistry assay", "assay_type": "functional, organism-based", "conditions": "dose 20-40 mg/kg, time 19.0 day"}, "HT-1080 [9]": {"tested_on": "HT-1080", "experiment": "Induction of apoptosis in human HT-1080 cells assessed as viable cells at 4 uM incubated for 24 hrs by Annexin-V FITC/PI staining based flow cytometry analysis (reference value: 92.5%)", "assay_type": "functional", "conditions": "read-out: Activity"}, "HT-1080 [10]": {"tested_on": "HT-1080", "experiment": "Induction of ferroptosis in human HT-1080 cells assessed as accumulation of lipid peroxidation at 10 uM after 6 hrs by BODIPYTM 581/591C11 probe based flow cytometry assay", "assay_type": "functional, cell-based"}, "[11]": {"experiment": "Toxicity in BALB/c nude mouse xenografted with human HT-1080 cells assessed as change in kidney morphology at 20 to 40 mg/kg, ip administered once daily for 19 days and measured every 2 days by H and E staining based assay", "assay_type": "organism-based", "conditions": "in vivo, 456 h, dose 20-40 mg/kg, time 19 day"}, "[12]": {"experiment": "Toxicity in BALB/c nude mouse xenografted with human HT-1080 cells assessed as change in spleen morphology at 20 to 40 mg/kg, ip administered once daily for 19 days and measured every 2 days by H and E staining based assay", "assay_type": "organism-based", "conditions": "in vivo, 456 h, dose 20-40 mg/kg, time 19 day"}, "HT-1080 [13]": {"tested_on": "HT-1080", "experiment": "Induction of apoptosis in human HT-1080 cells assessed as early apoptotic cells at 4 uM incubated for 24 hrs by Annexin-V FITC/PI staining based flow cytometry analysis (reference value: 1.85%)", "assay_type": "functional"}, "HT-1080 [14]": {"tested_on": "HT-1080", "experiment": "Induction of ferroptosis in human HT-1080 cells assessed as mitochondrial swelling at 4 uM after 24 hrs by transmission electron microscope analysis", "assay_type": "functional, cell-based"}, "[15]": {"experiment": "Potentiation of AMG510 induced cytotoxicity in human AMG 510-resistant MIA PaCa-2 cells assessed as reduction in cell survival rate at 5 uM in presence of 10 nM AMG510 (reference value: 90%)", "assay_type": "functional"}, "HT-1080 [16]": {"tested_on": "HT-1080", "experiment": "Induction of ferroptosis in human HT-1080 cells assessed as accumulation of lipid peroxidation at 1 to 4 uM after 12 hrs by BODIPYTM 581/591C11 probe based flow cytometry assay", "assay_type": "functional, cell-based", "conditions": "dose 1-4 µM"}, "HT-1080 [17]": {"tested_on": "HT-1080", "experiment": "Inhibition of colony formation in human HT-1080 cells incubated for 48 hrs followed by replacement with fresh media and measured after 12 days by crystal violet staining based assay", "assay_type": "functional, cell-based", "conditions": "dose 1-2 µM"}, "HT-1080 [18]": {"tested_on": "HT-1080", "experiment": "Inhibition of cell migration in human HT-1080 cells incubated for 24 to 48 hrs by inverted microscope based wound healing assay", "assay_type": "functional", "conditions": "dose 1-2 µM, time 24-48 hrs"}, "[19]": {"experiment": "Toxicity in BALB/c nude mouse xenografted with human HT-1080 cells assessed as change in lung morphology at 20 to 40 mg/kg, ip administered once daily for 19 days and measured every 2 days by H and E staining based assay", "assay_type": "organism-based", "conditions": "in vivo, 456 h, dose 20-40 mg/kg, time 19 day"}, "HT-1080 [20]": {"tested_on": "HT-1080", "experiment": "Antitumor activity against human HT-1080 cells xenografted in ip dosed BALB/c nude mouse assessed as increase in 4-HNE level administered once daily for 19 days and measured every 2 days by immunohistochemistry assay", "assay_type": "functional, organism-based", "conditions": "dose 20-40 mg/kg, time 19.0 day"}, "[21]": {"tested_on": "AMG 510-resistant MIA PaCa-2", "experiment": "Cytotoxicity against human AAMG 510-resistant MIA PaCa-2 cells at 10 uM", "assay_type": "functional, cell-based"}, "[22]": {"experiment": "Toxicity in BALB/c nude mouse xenografted with human HT-1080 cells assessed as change in liver morphology at 20 to 40 mg/kg, ip administered once daily for 19 days and measured every 2 days by H and E staining based assay", "assay_type": "organism-based", "conditions": "in vivo, 456 h, dose 20-40 mg/kg, time 19 day"}, "[23]": {"experiment": "Toxicity in BALB/c nude mouse xenografted with human HT-1080 cells assessed as necrosis at 20 to 40 mg/kg, ip administered once daily for 19 days and measured every 2 days by H and E staining based assay", "assay_type": "organism-based", "conditions": "in vivo, 456 h, dose 20-40 mg/kg, time 19 day"}, "HT-1080 [24]": {"tested_on": "HT-1080", "experiment": "Induction of ferroptosis in human HT-1080 cells assessed as decrease in mitochondrial crests at 4 uM after 24 hrs by transmission electron microscope analysis", "assay_type": "functional, cell-based"}, "HT-1080 [25]": {"tested_on": "HT-1080", "experiment": "Induction of apoptosis in human HT-1080 cells assessed as necrotic cells at 1 uM incubated for 24 hrs by Annexin-V FITC/PI staining based flow cytometry analysis (reference value: 3.98%)", "assay_type": "functional"}, "[26]": {"experiment": "Toxicity in BALB/c nude mouse xenografted with human HT-1080 cells assessed as cellular inflammation at 20 to 40 mg/kg, ip administered once daily for 19 days and measured every 2 days by H and E staining based assay", "assay_type": "organism-based", "conditions": "in vivo, 456 h, dose 20-40 mg/kg, time 19 day"}, "HT-1080 [27]": {"tested_on": "HT-1080", "experiment": "Induction of apoptosis in human HT-1080 cells assessed as late apoptotic cells at 2 uM incubated for 24 hrs by Annexin-V FITC/PI staining based flow cytometry analysis (reference value: 1.66%)", "assay_type": "functional"}, "[28]": {"target": "T1, Phospholipid hydroperoxide glutathione peroxidase GPX4 (Homo sapiens) (UniProt P36969)", "T1 sequence (whole entry)": "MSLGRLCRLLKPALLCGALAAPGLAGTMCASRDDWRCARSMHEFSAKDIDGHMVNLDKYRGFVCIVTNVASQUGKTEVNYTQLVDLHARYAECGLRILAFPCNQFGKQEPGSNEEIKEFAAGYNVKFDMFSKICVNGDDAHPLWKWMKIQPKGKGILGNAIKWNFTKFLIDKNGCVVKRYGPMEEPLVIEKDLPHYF", "experiment": "Induction of GPX4 degradation in human HT-1080 cells after 24 hrs by Western blotting assay", "assay_type": "cell-based", "conditions": "dose 1-4 µM"}, "[29]": {"target": "T1, Phospholipid hydroperoxide glutathione peroxidase GPX4 (Homo sapiens)", "experiment": "Induction of GPX4 degradation in human HT-1080 cells at 2 uM after 24 hrs by Western blotting assay", "assay_type": "cell-based"}, "[30]": {"experiment": "Cytotoxicity against human HPNE cells", "assay_type": "toxicity, cell-based"}, "HT-1080 [31]": {"tested_on": "HT-1080", "experiment": "Induction of ferroptosis in human HT-1080 cells assessed as appearance of broken outer membrane of mitochondria at 4 uM after 24 hrs by transmission electron microscope analysis", "assay_type": "functional, cell-based"}}, "note": "The source made the active and inactive calls. No cut-off for these calls is given here.", "data": [{"molecule": "O=C(CCCCCNC1=CC(=O)c2ccccc2C1=O)Nc1ccc(N(C(=O)CCl)C(C(=O)NCCc2ccccc2)c2cccs2)cc1", "note": "(stereo unspecified)", "values": [{"measurement": "Activity", "setting": "HT-1080 [1]", "value": "Active"}, {"measurement": "Activity", "setting": "HT-1080 [2]", "value": 3.03, "unit": "%"}, {"measurement": "Activity", "setting": "HT-1080 [3]", "value": 3.85, "unit": "%"}, {"measurement": "Activity", "setting": "HT-1080 [4]", "value": 7.99, "unit": "%"}, {"measurement": "Activity", "setting": "HT-1080 [5]", "value": "Dose-Dependent Effect"}, {"measurement": "Activity", "setting": "[6]", "value": "~60", "unit": "%"}, {"measurement": "Activity", "setting": "HT-1080 [7]", "value": "Dose-Dependent Effect"}, {"measurement": "Activity", "setting": "HT-1080 [8]", "value": "Dose-Dependent Effect"}, {"measurement": "viability at 4 µM", "setting": "HT-1080 [9]", "value": 79.9, "unit": "%"}, {"measurement": "Activity", "setting": "HT-1080 [10]", "value": "Active"}, {"measurement": "Activity", "setting": "[11]", "value": "Non-Toxic"}, {"measurement": "Activity", "setting": "[12]", "value": "Non-Toxic"}, {"measurement": "Activity", "setting": "HT-1080 [13]", "value": 9.04, "unit": "%"}, {"measurement": "Activity", "setting": "HT-1080 [14]", "value": "Active"}, {"measurement": "Activity", "setting": "[15]", "value": "~10", "unit": "%"}, {"measurement": "Activity", "setting": "HT-1080 [16]", "value": "Active"}, {"measurement": "inhibition", "setting": "HT-1080 [17]", "value": "Dose-Dependent Effect"}, {"measurement": "inhibition", "setting": "HT-1080 [18]", "value": "Dose-Dependent Effect"}, {"measurement": "Activity", "setting": "[19]", "value": "Non-Toxic"}, {"measurement": "Activity", "setting": "HT-1080 [20]", "value": "Dose-Dependent Effect"}, {"measurement": "Activity", "setting": "[21]", "value": "Active"}, {"measurement": "Activity", "setting": "[22]", "value": "Non-Toxic"}, {"measurement": "Activity", "setting": "[23]", "value": "Non-Toxic"}, {"measurement": "Activity", "setting": "HT-1080 [24]", "value": "Active"}, {"measurement": "Activity", "setting": "HT-1080 [25]", "value": 2.32, "unit": "%"}, {"measurement": "Activity", "setting": "[26]", "value": "Non-Toxic"}, {"measurement": "Activity", "setting": "HT-1080 [27]", "value": 4.75, "unit": "%"}, {"measurement": "Activity", "setting": "[28]", "value": "Dose-Dependent Effect"}, {"measurement": "Activity", "setting": "[29]", "value": "Active"}, {"measurement": "IC50", "setting": "[30]", "value": 9.55, "unit": "µM"}, {"measurement": "Activity", "setting": "HT-1080 [31]", "value": "Active"}]}]}
